From patent US20240158446A1, “CYCLIC COMPOUND HAVING SELECTIVE INHIBITORY ACTION ON KRAS OVER HRAS AND NRAS” (CHUGAI SEIYAKU KABUSHIKI KAISHA, priority 2021, published 2024)
pIC50, pKd: −log10 of the molar value. Where two headings read alike, the source gives them in different places.

Legend:
[1] = target: GDP-bound KRAS wild-type protein (Homo sapiens, UniProt P01116); assay: Binding to KRAS by surface plasmon resonance (SPR), Single Cycle Kinetics; details: GDP-bound KRAS wild-type protein, read-out: KRAS KD
[2] = target: GDP-bound HRAS wild-type protein (Homo sapiens, UniProt P01112); assay: Binding to HRAS by surface plasmon resonance (SPR), Single Cycle Kinetics; details: for HRAS/KRAS (ratio of KD value for HRAS to KD value for KRAS): SPR, GDP-bound HRAS wild-type protein vs GDP-bound KRAS wild-type protein; for HRAS/KRAS (ratio of KD value with respect to GDP-bound HRAS wild-type protein to KD value with respect to KRAS): SPR KD ratio HRAS/KRAS, class symbols
[3] = target: GDP-bound NRAS wild-type protein (Homo sapiens, UniProt P01111); assay: Binding to NRAS by surface plasmon resonance (SPR), Single Cycle Kinetics; details: for NRAS/KRAS (ratio of KD value for NRAS to KD value for KRAS): SPR, GDP-bound NRAS wild-type protein vs GDP-bound KRAS wild-type protein; for NRAS/KRAS (ratio of KD value with respect to GDP-bound NRAS wild-type protein to KD value with respect to KRAS): SPR KD ratio NRAS/KRAS, class symbols
[4] = tested on: human lung cancer strain NCI-H441;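 further: cell proliferation inhibition after four days measured by CellTiter-Glo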
[5] = SPR Single Cycle Kinetics, 1:1 binding model

GDP-bound HRAS wild-type protein, sequence (P01112 whole entry): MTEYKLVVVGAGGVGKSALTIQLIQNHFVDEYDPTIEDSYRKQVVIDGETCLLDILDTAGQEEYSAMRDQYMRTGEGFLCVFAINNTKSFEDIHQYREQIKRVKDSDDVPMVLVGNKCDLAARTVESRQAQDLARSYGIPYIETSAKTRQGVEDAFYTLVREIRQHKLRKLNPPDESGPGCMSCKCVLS
GDP-bound NRAS wild-type protein, sequence (P01111 whole entry): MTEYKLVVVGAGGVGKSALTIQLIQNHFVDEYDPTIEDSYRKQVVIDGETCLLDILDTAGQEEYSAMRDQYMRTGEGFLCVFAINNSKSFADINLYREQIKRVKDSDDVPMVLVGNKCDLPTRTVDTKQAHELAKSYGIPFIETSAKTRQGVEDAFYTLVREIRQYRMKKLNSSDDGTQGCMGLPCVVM
GDP-bound KRAS wild-type protein, sequence (P01116 whole entry): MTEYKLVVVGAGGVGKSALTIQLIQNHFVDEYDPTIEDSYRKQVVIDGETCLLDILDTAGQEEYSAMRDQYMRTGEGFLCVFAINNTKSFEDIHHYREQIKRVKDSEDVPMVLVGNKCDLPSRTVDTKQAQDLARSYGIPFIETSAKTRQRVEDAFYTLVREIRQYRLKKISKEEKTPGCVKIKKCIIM

Compound | pKd ([1]; SPR, Single Cycle Kinetics) | HRAS/KRAS (ratio of KD value for HRAS to KD value for KRAS) [2] | NRAS/KRAS (ratio of KD value for NRAS to KD value for KRAS) [3] | pIC50 [4] | pKd [1, 5] | HRAS/KRAS (ratio of KD value with respect to GDP-bound HRAS wild-type protein to KD value with respect to KRAS) [2] | NRAS/KRAS (ratio of KD value with respect to GDP-bound NRAS wild-type protein to KD value with respect to KRAS) [3]
CC[C@H](C)[C@@H]1NC(=O)[C@H](COC)N(C)C(=O)C[C@@H](C(=O)N(C)CC)N(C)C(=O)[C@H](C2CCCC2)N(C)C(=O)C2(CC(C)(C)C2)NC(=O)[C@@H]2C[C@H](C)CN2C(=O)[C@H](CCc2ccc(C(F)(F)F)c(Cl)c2)NC(=O)CN(C)C(=O)[C@H](Cc2ccc(C)cc2)N2CC/C=C\C[C@@H](C2=O)N(C)C(=O)CN(C)C1=O [PP2506] | 9.89 | A (a compound having 10 or more and less than 20 is denoted as A) | A (a compound having 10 or more and less than 20 is denoted as A) | 7.97 | – | – | –
CCO[C@@H]1C[C@H]2C(=O)NC3(CC(C)(C)C3)C(=O)N(C)[C@@H](C3CCCC3)C(=O)N(C)[C@H](C(=O)N(C)CC)CC(=O)N(C)[C@@H](COC)C(=O)N[C@@H]([C@@H](C)CC)C(=O)N(C)CC(=O)N(C)[C@H]3C/C=C\CCN(C3=O)[C@@H](Cc3ccc(C)cc3)C(=O)N(C)CC(=O)N[C@@H](CCc3ccc(C(F)(F)F)c(Cl)c3)C(=O)N2C1 [PP2507] | 10.21 | A (a compound having 10 or more and less than 20 is denoted as A) | AA (a compound having 20 or more is denoted as AA) | 8.05 | – | – | –
CCC[C@H]1C(=O)N[C@@H](CC(C)C)C(=O)N(C2CC2)CC(=O)N(C)[C@H]2C/C=C\CCN(C2=O)[C@@H](Cc2ccc(C)cc2)C(=O)N(C)CC(=O)N[C@@H](CCc2cc(F)c(C(F)(F)F)c(F)c2)C(=O)N2C[C@H](OCC)C[C@H]2C(=O)NC2(CC(C)(C)C2)C(=O)N(C)[C@@H](C2CCCC2)C(=O)N(C)[C@H](C(=O)N(C)C)CC(=O)N1C [PP2508] | 8.47 | B (a compound having 3 or more and less than 10 is denoted as B) | A (a compound having 10 or more and less than 20 is denoted as A) | 6.91 | – | – | –
CCC[C@H]1C(=O)N[C@@H](CC(C)C)C(=O)N(C2CC2)CC(=O)N(C)[C@H]2C/C=C\CCN(C2=O)[C@@H](Cc2ccc(C)cc2)C(=O)N(C)CC(=O)N[C@@H](CCc2ccc(C(F)(F)F)c(OC)c2)C(=O)N2C[C@H](OCC)C[C@H]2C(=O)NC2(CC(C)(C)C2)C(=O)N(C)[C@@H](C2CCCC2)C(=O)N(C)[C@H](C(=O)N(C)C)CC(=O)N1C [PP2510] | 8.41 | B (a compound having 3 or more and less than 10 is denoted as B) | A (a compound having 10 or more and less than 20 is denoted as A) | 6.74 | – | – | –
C#CCN1CC(=O)N(C)[C@H]2C/C=C\CCN(C2=O)[C@@H](Cc2ccc(C)cc2)C(=O)N(C)CC(=O)N[C@@H](CCc2cc(F)c(C(F)(F)F)c(F)c2)C(=O)N2C[C@H](OCC)C[C@H]2C(=O)NC2(CC(C)(C)C2)C(=O)N(C)[C@@H](C2CCCC2)C(=O)N(C)[C@H](C(=O)N(C)C)CC(=O)N(C)[C@@H](CCC)C(=O)N[C@@H](CC(C)C)C1=O [PP2512] | 8.70 | A (a compound having 10 or more and less than 20 is denoted as A) | A (a compound having 10 or more and less than 20 is denoted as A) | 6.96 | – | – | –
CC[C@H](C)[C@@H]1NC(=O)[C@H](COC)N(C)C(=O)C[C@@H](C(=O)N(C)C)N(C)C(=O)[C@H](C2CCCC2)N(C)C(=O)C2(CC(C)(C)C2)NC(=O)[C@@H]2C[C@@H](OC(C)C)CN2C(=O)[C@H](CCc2ccc(Cl)c(Cl)c2)NC(=O)CN(C)C(=O)[C@H](CC2CCCCC2)N2CC/C=C\C[C@@H](C2=O)N(C)C(=O)CN(C2CC2)C1=O [PP2513] | 8.59 | A (a compound having 10 or more and less than 20 is denoted as A) | A (a compound having 10 or more and less than 20 is denoted as A) | 6.52 | – | – | –
C#CCN1CC(=O)N(C)[C@H]2C/C=C\CCN(C2=O)[C@@H](Cc2ccc(C)cc2)C(=O)N(C)CC(=O)N[C@@H](CCc2ccc(C(F)(F)F)c(OC)c2)C(=O)N2C[C@H](OCC)C[C@H]2C(=O)NC2(CC(C)(C)C2)C(=O)N(C)[C@@H](C2CCCC2)C(=O)N(C)[C@H](C(=O)N(C)C)CC(=O)N(C)[C@@H](CCC)C(=O)N[C@@H](CC(C)C)C1=O [PP2514] | 8.62 | B (a compound having 3 or more and less than 10 is denoted as B) | A (a compound having 10 or more and less than 20 is denoted as A) | 7.06 | – | – | –
CCC(CC)[C@H]1C(=O)N(C)[C@H](C(=O)N(C)C)CC(=O)N(C)[C@@H](COC)C(=O)N[C@@H]([C@@H](C)CC)C(=O)N(C2CC2)CC(=O)N(C)[C@H]2C/C=C\CCN(C2=O)[C@@H](CC2CCCCC2)C(=O)N(C)CC(=O)N[C@@H](CCc2cc(F)c(C(F)(F)F)c(F)c2)C(=O)N2C[C@H](OC(C)C)C[C@H]2C(=O)NC2(CC(C)(C)C2)C(=O)N1C [PP2515] | 8.29 | A (a compound having 10 or more and less than 20 is denoted as A) | A (a compound having 10 or more and less than 20 is denoted as A) | 6.42 | – | – | –
CCC[C@H]1C(=O)N[C@@H](CC(C)C)C(=O)N(CC)CC(=O)N(C)[C@H]2C/C=C\CCN(C2=O)[C@@H](Cc2ccc(C)cc2)C(=O)N(C)CC(=O)N[C@@H](CCc2cc(F)c(C(F)(F)F)c(F)c2)C(=O)N2C[C@H](OCC)C[C@H]2C(=O)NC2(CC(C)(C)C2)C(=O)N(C)[C@@H](C2CCCC2)C(=O)N(C)[C@H](C(=O)N(C)C)CC(=O)N1C [PP2516] | 8.54 | B (a compound having 3 or more and less than 10 is denoted as B) | A (a compound having 10 or more and less than 20 is denoted as A) | 6.91 | – | – | –
CCC[C@H]1C(=O)N[C@@H](CC(C)C)C(=O)N(CC)CC(=O)N(C)[C@H]2C/C=C\CCN(C2=O)[C@@H](Cc2ccc(C)cc2)C(=O)N(C)CC(=O)N[C@@H](CCc2ccc(C(F)(F)F)c(OC)c2)C(=O)N2C[C@H](OCC)C[C@H]2C(=O)NC2(CC(C)(C)C2)C(=O)N(C)[C@@H](C2CCCC2)C(=O)N(C)[C@H](C(=O)N(C)C)CC(=O)N1C [PP2518] | 8.48 | A (a compound having 10 or more and less than 20 is denoted as A) | A (a compound having 10 or more and less than 20 is denoted as A) | 7.09 | – | – | –
CCC[C@H]1C(=O)N[C@@H](CC(C)C)C(=O)N(CCOC)CC(=O)N(C)[C@H]2C/C=C\CCN(C2=O)[C@@H](Cc2ccc(C)cc2)C(=O)N(C)CC(=O)N[C@@H](CCc2cc(F)c(C(F)(F)F)c(F)c2)C(=O)N2C[C@H](OCC)C[C@H]2C(=O)NC2(CC(C)(C)C2)C(=O)N(C)[C@@H](C2CCCC2)C(=O)N(C)[C@H](C(=O)N(C)C)CC(=O)N1C [PP2520] | 8.48 | A (a compound having 10 or more and less than 20 is denoted as A) | A (a compound having 10 or more and less than 20 is denoted as A) | 6.68 | – | – | –
CCC[C@H]1C(=O)N[C@@H]([C@@H](C)CC)C(=O)N(C2CC2)CC(=O)N(C)[C@H]2C/C=C\CCN(C2=O)[C@@H](CC2CCC(F)(F)CC2)C(=O)N(C)CC(=O)N[C@@H](CCc2ccc(Cl)c(Cl)c2)C(=O)N2C[C@H](OC(C)C)C[C@H]2C(=O)NC2(CC(C)(C)C2)C(=O)N(C)[C@@H](C2CCCC2)C(=O)N(C)[C@H](C(=O)N(C)C)CC(=O)N1C [PP2521] | 8.55 | A (a compound having 10 or more and less than 20 is denoted as A) | A (a compound having 10 or more and less than 20 is denoted as A) | 6.89 | – | – | –
CCC[C@H]1C(=O)N[C@@H](CC(C)C)C(=O)N(CCOC)CC(=O)N(C)[C@H]2C/C=C\CCN(C2=O)[C@@H](Cc2ccc(C)cc2)C(=O)N(C)CC(=O)N[C@@H](CCc2ccc(C(F)(F)F)c(OC)c2)C(=O)N2C[C@H](OCC)C[C@H]2C(=O)NC2(CC(C)(C)C2)C(=O)N(C)[C@@H](C2CCCC2)C(=O)N(C)[C@H](C(=O)N(C)C)CC(=O)N1C [PP2522] | – | – | – | 6.95 | 8.49 | B (a compound having 3 or more and less than 10 is denoted as B) | B (a compound having 3 or more and less than 10 is denoted as B)
CCC(CC)[C@H]1C(=O)N(C)[C@H](C(=O)N(C)C)CC(=O)N(C)[C@@H](COC)C(=O)N[C@@H]([C@@H](C)CC)C(=O)N(C2CC2)CC(=O)N(C)[C@H]2C/C=C\CCN(C2=O)[C@@H](CC2CCC(F)(F)CC2)C(=O)N(C)CC(=O)N[C@@H](CCc2cc(F)c(C(F)(F)F)c(F)c2)C(=O)N2C[C@H](OC(C)C)C[C@H]2C(=O)NC2(CC(C)(C)C2)C(=O)N1C [PP2523] | – | – | – | 7.04 | 8.77 | A (a compound having 10 or more and less than 20 is denoted as A) | A (a compound having 10 or more and less than 20 is denoted as A)
CCC(CC)[C@H]1C(=O)N(C)[C@H](C(=O)N(C)C)CC(=O)N(C)[C@@H](COC)C(=O)N[C@@H]([C@@H](C)CC)C(=O)N(C2CC2)CC(=O)N(C)[C@H]2C/C=C\CCN(C2=O)[C@@H](CC2CCC(F)(F)CC2)C(=O)N(C)CC(=O)N[C@@H](CCc2ccc(Cl)c(Cl)c2)C(=O)N2C[C@H](OC(C)C)C[C@H]2C(=O)NC2(CC(C)(C)C2)C(=O)N1C [PP2525] | – | – | – | 6.85 | 8.42 | A (a compound having 10 or more and less than 20 is denoted as A) | AA (a compound having 20 or more is denoted as AA)
